Assay results published in patent publication US7714014B2, “Targeting GLI proteins in human cancer by small molecules” (The Regents of the University of California, priority 2005, dated 2010).
“Also recorded” adds a separate entry of the source.

How the values were obtained:
[1] = test system: GLI1-induced transcription in melanoma cell lines Malme-3M, A375, SK-Mel-2, SK-Mel-5; assay: 6xGLI BS-luciferase reporter assay; format: cell-based, human; settings: 20 μM, 16-20 hours
Protocol: One day before transfection, cells (1×10^5) were plated in 12-well plates with growth medium without antibiotics. When cells reached 80-90% of confluence they were co-transfected using 0.5 μg of each promoter construct in pGL3Basic vector and 0.025 μg pRL-TK Vector (Promega; Madison, Wis.) containing Renilla Luciferase as an internal control for the transformation efficiency. Lipofectamine 2000™ (Invitrogen Life Technologies) was used to mediate transfection for about 6 hours. […] Briefly, cells were lysed in a lysis buffer and Firefly and Renilla Luciferase activities in cells of each well, were measured using Dual-Luciferase Assay System (Promega) and an illuminometer. The measured luciferase activities were normalized to pRL-TK Vector activity and were given relative to the basal activity of empty pGL3-Basic Vector, which was set to unity. The data shown represent mean values (±S.D.). All measurements were performed in triplicate and repeated in at least three independent experiments. The human Wnt-2 promoter-luciferase construct, the human SOCS3 promoter-Luciferase construct and the human Gremlin promoter-luciferase construct were cloned and characterized in the laboratory of Dr. Jablons at the University of California, San Francisco (San Francisco, Calif.; He et al., Biochem Biophy Res Comm, 2003; and unpublished data). […]

[2] = test system: cytosolic β-catenin in melanoma cell lines A375 and SK-Mel-5; assay: Western blot of cytosolic β-catenin; format: cell-based, human; settings: 10 μM or 20 μM
Protocol: […] Protein concentrations were measured using Bio-Rad Protein Assay reagent. Whole cell lysate protein (5-20 ug) were boiled for 5 min and separated by 10-20% SDS-PAGE. Proteins were transferred to an Immobilon-P membrane (Millipore Corp., Bedford, Mass.) using semi-dry transfer cell (Bio-Rad; Benicia, Calif.). The membranes were blocked with 5% nonfat milk powder and 0.1% Tween 20 in Tris-buffer saline overnight at 4° C. and then incubated with primary antibody for 1 h at room temperature. Membranes were washed in 5% nonfat milk powder and 0.1% Tween 20 in Tris-buffer saline for three 10-min periods. Horseradish peroxidase-conjugated goat anti-rabbit or donkey anti-mouse antibodies were used as secondary antibodies. Proteins were visualized with chemiluminescence luminol reagents (Santa Cruz Bio-technology). Anti-Dvl-3, and anti-Survivin, antibodies were from Santa Cruz Biotechnology (Santa Cruz, Calif.). Anti-Caspase3 antibody was from Oncogene (Cambridge, Mass.). Anti-β-Actin antibody was from Sigrna-Aldrich Corp. (St. Louis, Mo.). Anti-β-catenin antibody was from Transduction Laboratories (Lexington, Ky.). Anti-Cytochrome c antibody was from BD Biosciences (San Diego, Calif.). For detecting alteration of β-catenin cytosolic extracts were prepared and examined as described previously in the publications from our lab. […]

[3] = test system: melanoma cell lines Malme-3M, A375, G361, SK-Mel-2, SK-Mel-5, and SK-Mel-28; assay: Time course of cell survival (flow cytometry); format: cell-based, human
Protocol: The time course of cell survival in melanoma cell lines (Malme-3M, A375, G361, SK-Mel-2, SK-Mel-5, and SK-Mel-28) after administration of small molecule compound FN1-8 was analyzed. These melanoma cells were incubated with 10 μM or 20 μM FN1-8. Then flow cytometry was used to examine the percentage of living and dead cells at different time points. […] (FIGS. 18A, B, and C, and data not shown).

[4] = Pharmacokinetic analysis in mice (i.p. injection); format: in vivo, mouse
Protocol: Three mice were i.p. injected in the abdomens with small molecule compounds FN1-5 at a dose of 30 mg/kg body weight. Then plasma was collected from the tail-vein of each mouse at 10 min, 2 hours, 6 hours and 24 hours after FN1-5 injection.
Similarly, the pharmacokinetic properties of small molecule compound FN1-8 were analyzed (FIG. 21B). Comparing the uptake of FN1-8 to FN1-5, the uptake of FN1-5 after i.p injection seems to be better, by about 2 fold.

SW480 (colon cancer) = assay: Apoptosis analysis (Annexin V FITC, flow cytometry); format: cell-based, human; settings: 3 days
Protocol: Apoptosis was analyzed by using an Annexin V FITC Apoptosis Detection Kit (Biosource, Camarillo, Calif.), according to the manufacturer's protocol. After treatment with different small molecule compounds at various concentrations for about 3 days, cells were harvested by trypsinization, stained and immediately analyzed by flow cytometry (FACScan; Decton Dickinson, Franklin Lake, N.J.). Early apoptotic cells with exposed phosphatidylserine but intact cell membranes will bind to Annexin V-FITC, but not propidium iodide (PI). Cells in necrotic or late apoptotic stages will be labeled with both Annexin V-FITC and PI. “% apoptotic cells” or “% apoptosis” refers to the combined early and late apoptotic cells.
Flow cytometry was used to examine apoptosis in colon cancer cells after treatment of cells with small molecule compounds of the invention.

uptake of FN1-5 relative to FN1-8 ([4]; i.p. injection)	time of uptake into plasma ([4]; i.p., 30 mg/kg) [min]	time within which plasma/serum concentration diminishes ([4]; i.p., 30 mg/kg) [h]	Structure (SMILES)	6xGLI BS-luciferase activity (GLI1-induced) [1]	cytosolic β-catenin level [2]	time after which cell killing effect was apparent ([3]; 20 μM, all tested melanoma cells) [days]	apoptosis in time course experiment ([3]; Malme-3M, A375, SK-Mel-5 (FIG. 14))	% of apoptotic cells (SW480 (colon cancer); SW480, 10 μM) [%]	% of apoptotic cells (SW480 (colon cancer); SW480, 100 μM) [%]
–	–	–	O=C(NCCc1ccc(O)cc1)C1C(c2ccccc2)=NN(c2ccccc2)C1c1ccccc1 (stereo not drawn) [FN1-8, N-(2-(4-Hydroxyphenyl)ethyl)-1,3,5-triphenyl-4,5-dihydro-pyrazole-4-carboxyamide]	significantly reduced level of luciferase activity; also recorded: down-regulates GLI1-induced transcription activity	down-regulated	2	induces significant apoptosis	–	–
about 2 fold	≤ 10	≤ 24	O=C(NCCCCCO)C1C(c2ccccc2)=NN(c2ccccc2)C1c1ccccc1 (stereo not drawn) [FN1-5, N-(5-Hydroxypentyl)-1,3,5-triphenyl-4,5-dihydro-pyrazole-4-carboxyamide]	–	–	–	–	10.8	58.6
